In ChEMBL document CHEMBL1201862, “PubChem BioAssay data set” (2004):
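Where inhibition never reached the appropriate level, the endpoint shown equals the highest concentration tested. Otherwise, values were interpolated linearly from a five-concentration, 48-hour dose response in 96-well plates. GI50 is the concentration that inhibits growth by half.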 The source made the active and inactive calls. Rule as the data show it: active = GI50 up to about 1.1 µM and inactive = higher. Square brackets hold non-standard residues; d marks the D form. Peptide text beside a SMILES is read from it. * marks the point of attachment. Phe(4-NO2) = N[CH](Cc1ccc([N+](=O)[O-])cc1)C(=O)O; Boc = CC(C)(C)OC(=O)*

How the values were obtained:
Experiment in all cases: NCI-60 cell line screen, 48 h
HT-29 = system: HT-29
MDA-N = system: MDA-N
IGROV-1 = system: IGROV-1
A549 = system: A549
LOX IMVI = system: LOX IMVI
OVCAR-8 = system: OVCAR-8
SK-MEL-28 = system: SK-MEL-28
A498 = system: A498
BT-549 = system: BT-549
HCT-116 = system: HCT-116
SNB-19 = system: SNB-19
NCI-H23 = system: NCI-H23
TK-10 = system: TK-10
HOP-62 = system: HOP-62
NCI-H522 = system: NCI-H522
SNB-75 = system: SNB-75
SN12C = system: SN12C
NCI/ADR-RES = system: NCI/ADR-RES
U-251 = system: U-251
CCRF-CEM = system: CCRF-CEM

Compound	GI50 (HT-29)	GI50 (MDA-N)	GI50 (IGROV-1)	GI50 (A549)	GI50 (LOX IMVI)	GI50 (OVCAR-8)	GI50 (SK-MEL-28)	GI50 (A498)	GI50 (BT-549)	GI50 (HCT-116)	GI50 (SNB-19)	GI50 (NCI-H23)	GI50 (TK-10)	GI50 (HOP-62)	GI50 (NCI-H522)	GI50 (SNB-75)	GI50 (SN12C)	GI50 (NCI/ADR-RES)	GI50 (U-251)	GI50 (CCRF-CEM)
COC1/C=C\OC2(C)Oc3c(C)c(O)c4c(O)c(c(CN(C)C)c(O)c4c3C2=O)NC(=O)/C(C)=C\C=C/C(C)C(O)C(C)C(O)C(C)C(OC(C)=O)C1C (centres undefined)	20.6 µM (inactive)	30.6 µM (inactive)	33.7 µM (inactive)	27.4 µM (inactive)	17.6 µM (inactive)	30.6 µM (inactive)	31.4 µM (inactive)	> 100 µM (inactive)	31.2 µM (inactive)	18.3 µM (inactive)	42.9 µM (inactive)	16 µM (inactive)	35.3 µM (inactive)	55.1 µM (inactive)	16.2 µM (inactive)	39.3 µM (inactive)	25.9 µM (inactive)	> 100 µM (inactive)	19.7 µM (inactive)	
COP(=O)(OC)OCN(C)CC/C=C(\C)CC/C=C(\C)CCC=C(C)C		14.9 µM (inactive)	12.5 µM (inactive)	16.9 µM (inactive)	15.8 µM (inactive)	16 µM (inactive)	17.3 µM (inactive)	> 100 µM (inactive)	16.4 µM (inactive)	11.8 µM (inactive)	10.4 µM (inactive)	17.2 µM (inactive)	10.3 µM (inactive)	16.1 µM (inactive)	13.4 µM (inactive)	14.8 µM (inactive)	15.6 µM (inactive)	13 µM (inactive)	17.7 µM (inactive)	10.4 µM (inactive)
N/N=C1\C(OC(=O)Nc2ccccc2)=Nc2ccccc21	30.5 µM (inactive)	19.1 µM (inactive)	14.8 µM (inactive)	17 µM (inactive)	14.5 µM (inactive)	12.1 µM (inactive)	60 µM (inactive)	17.1 µM (inactive)	11.7 µM (inactive)	14.2 µM (inactive)	26.8 µM (inactive)	15.1 µM (inactive)	23 µM (inactive)	18.6 µM (inactive)	13.7 µM (inactive)	22.8 µM (inactive)	19.2 µM (inactive)	30.3 µM (inactive)	16 µM (inactive)	
Cc1cccc(/N=N/c2c(C)nn(C(=O)CC(=O)Nc3ccccc3)c2C)c1	> 100 µM (inactive)	> 100 µM (inactive)	> 100 µM (inactive)	> 100 µM (inactive)	> 100 µM (inactive)	> 100 µM (inactive)	> 100 µM (inactive)	> 100 µM (inactive)	> 100 µM (inactive)	> 100 µM (inactive)	> 100 µM (inactive)	> 100 µM (inactive)	> 100 µM (inactive)	> 100 µM (inactive)	> 100 µM (inactive)	> 100 µM (inactive)	> 100 µM (inactive)	> 100 µM (inactive)	> 100 µM (inactive)	> 100 µM (inactive)
COc1ccc(NC(C)=O)c(C(O)CCNC(C)=O)c1 (centres undefined)	> 100 µM (inactive)	> 100 µM (inactive)	> 100 µM (inactive)	> 100 µM (inactive)	> 100 µM (inactive)	> 100 µM (inactive)		31.5 µM (inactive)	> 100 µM (inactive)	> 100 µM (inactive)	> 100 µM (inactive)	> 100 µM (inactive)	> 100 µM (inactive)		> 100 µM (inactive)	> 100 µM (inactive)	> 100 µM (inactive)	> 100 µM (inactive)	> 100 µM (inactive)	> 100 µM (inactive)
COc1cccc2c1C(=O)c1c(O)c3c(c(O)c1C2=O)CC(O)(C(O)CO)CC3OC1CC2C(OC3COCC(C#N)N32)C(C)O1 (centres undefined)	< 0.01 µM (active)	< 0.01 µM (active)	< 0.01 µM (active)	< 0.01 µM (active)	< 0.01 µM (active)	< 0.01 µM (active)	< 0.01 µM (active)	< 0.01 µM (active)	< 0.01 µM (active)	< 0.01 µM (active)	< 0.01 µM (active)	< 0.01 µM (active)	< 0.01 µM (active)	< 0.01 µM (active)	< 0.01 µM (active)	< 0.01 µM (active)	< 0.01 µM (active)	< 0.01 µM (active)	< 0.01 µM (active)	< 0.01 µM (active)
CNC(=O)CCC(NC(=O)OC(C)(C)C)C(=O)NC(Cc1ccc([N+](=O)[O-])cc1)C(=O)NCC(=O)NC (centres undefined) (Boc-Glu(NHMe)-[Phe(4-NO2)]-Gly-NHMe; configuration not given here)	> 100 µM (inactive)	> 100 µM (inactive)	> 100 µM (inactive)	> 100 µM (inactive)	> 100 µM (inactive)	> 100 µM (inactive)	> 100 µM (inactive)	68.2 µM (inactive)	> 100 µM (inactive)	> 100 µM (inactive)	> 100 µM (inactive)	> 100 µM (inactive)	> 100 µM (inactive)	> 100 µM (inactive)	> 100 µM (inactive)	> 100 µM (inactive)	> 100 µM (inactive)	> 100 µM (inactive)	> 100 µM (inactive)	
